Assay results as given in ChEMBL document CHEMBL1811886 (J Med Chem, 2011).

Tests used:
[1] = molecular target: T1, Histamine H3 receptor (Homo sapiens, UniProt Q9Y5N1); assay: Displacement of [3H]NAMH from human histamine H3 receptor expressed in CHO cells; format: cell-based
[2] = Systemic clearance in fasted Sprague-Dawley rat at 1 mg/kg, iv after 6 to 24 hrs by LC-MS/MS analysis; format: ADME, organism-based; set-up: dose 1 mg/kg, route intravenous; conditions: in vivo
[3] = Oral bioavailability in fasted Sprague-Dawley rat at 5 mg/kg after 6 hrs by LC-MS/MS analysis; format: ADME, organism-based; conditions: in vivo
[4] = molecular target: T2, Histamine H3 receptor (Rattus norvegicus, UniProt Q9QYN8); assay: Displacement of [3H]NAMH from rat histamine H3 receptor expressed in CHO cells; format: cell-based
T2 sequence (Q9QYN8 whole entry): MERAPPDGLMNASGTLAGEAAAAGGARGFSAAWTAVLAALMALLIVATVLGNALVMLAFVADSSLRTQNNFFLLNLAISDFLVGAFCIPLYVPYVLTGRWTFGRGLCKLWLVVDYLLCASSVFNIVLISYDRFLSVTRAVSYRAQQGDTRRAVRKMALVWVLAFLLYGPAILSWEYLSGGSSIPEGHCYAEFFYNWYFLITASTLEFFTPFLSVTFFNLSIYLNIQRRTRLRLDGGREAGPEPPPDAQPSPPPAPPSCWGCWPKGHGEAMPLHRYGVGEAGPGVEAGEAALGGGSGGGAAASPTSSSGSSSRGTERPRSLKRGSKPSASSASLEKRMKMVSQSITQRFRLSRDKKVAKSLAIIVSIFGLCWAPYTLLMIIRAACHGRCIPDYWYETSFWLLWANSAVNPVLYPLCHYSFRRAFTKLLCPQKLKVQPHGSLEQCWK

[5] = Ratio of drug uptake in brain to plasma of fasted Sprague-Dawley rat at 1 mg/kg, iv after 6 to 24 hrs by LC-MS/MS analysis; format: ADME, organism-based; set-up: dose 1 mg/kg, route intravenous; conditions: read-out: BPR
[6] = Terminal half life in fasted Sprague-Dawley rat at 1 mg/kg, iv after 6 to 24 hrs by LC-MS/MS analysis; format: ADME, organism-based; set-up: dose 1 mg/kg, route intravenous; conditions: in vivo, read-out: beta t1/2 (converted)
[7] = Bioavailability in fasted Sprague-Dawley rat at 1 mg/kg, iv after 6 to 24 hrs by LC-MS/MS analysis; format: ADME, organism-based; conditions: in vivo
[8] = test system: Rattus norvegicus; assay: Inhibition of RAMH-induced dipsogenia in Long Evans rat administered as po 15 mins prior to RAMH challenge; format: functional
[9] = molecular target: T1, Histamine H3 receptor; assay: Antagonist activity against human histamine H3 receptor assessed as inhibition of R-alpha-methylhistamine induced [35S]GTPgammaS binding; format: functional
[10] = molecular target: T2, Histamine H3 receptor; assay: Inverse agonist activity at rat histamine H3 receptor assessed as inhibition of R-alpha-methylhistamine induced [35S]GTPgammaS binding; format: functional
[11] = Oral bioavailability in fasted Sprague-Dawley rat at 10 mg/kg after 24 hrs by LC-MS/MS analysis; format: ADME, organism-based; conditions: in vivo
[12] = molecular target: Voltage-gated inwardly rectifying potassium channel KCNH2 (Homo sapiens, UniProt Q12809); assay: Inhibition of recombinant human ERG channel expressed in human HEK 293 cells by patch clamp assay; format: cell-based, HEK293
Sequence of Voltage-gated inwardly rectifying potassium channel KCNH2 (Q12809 whole entry): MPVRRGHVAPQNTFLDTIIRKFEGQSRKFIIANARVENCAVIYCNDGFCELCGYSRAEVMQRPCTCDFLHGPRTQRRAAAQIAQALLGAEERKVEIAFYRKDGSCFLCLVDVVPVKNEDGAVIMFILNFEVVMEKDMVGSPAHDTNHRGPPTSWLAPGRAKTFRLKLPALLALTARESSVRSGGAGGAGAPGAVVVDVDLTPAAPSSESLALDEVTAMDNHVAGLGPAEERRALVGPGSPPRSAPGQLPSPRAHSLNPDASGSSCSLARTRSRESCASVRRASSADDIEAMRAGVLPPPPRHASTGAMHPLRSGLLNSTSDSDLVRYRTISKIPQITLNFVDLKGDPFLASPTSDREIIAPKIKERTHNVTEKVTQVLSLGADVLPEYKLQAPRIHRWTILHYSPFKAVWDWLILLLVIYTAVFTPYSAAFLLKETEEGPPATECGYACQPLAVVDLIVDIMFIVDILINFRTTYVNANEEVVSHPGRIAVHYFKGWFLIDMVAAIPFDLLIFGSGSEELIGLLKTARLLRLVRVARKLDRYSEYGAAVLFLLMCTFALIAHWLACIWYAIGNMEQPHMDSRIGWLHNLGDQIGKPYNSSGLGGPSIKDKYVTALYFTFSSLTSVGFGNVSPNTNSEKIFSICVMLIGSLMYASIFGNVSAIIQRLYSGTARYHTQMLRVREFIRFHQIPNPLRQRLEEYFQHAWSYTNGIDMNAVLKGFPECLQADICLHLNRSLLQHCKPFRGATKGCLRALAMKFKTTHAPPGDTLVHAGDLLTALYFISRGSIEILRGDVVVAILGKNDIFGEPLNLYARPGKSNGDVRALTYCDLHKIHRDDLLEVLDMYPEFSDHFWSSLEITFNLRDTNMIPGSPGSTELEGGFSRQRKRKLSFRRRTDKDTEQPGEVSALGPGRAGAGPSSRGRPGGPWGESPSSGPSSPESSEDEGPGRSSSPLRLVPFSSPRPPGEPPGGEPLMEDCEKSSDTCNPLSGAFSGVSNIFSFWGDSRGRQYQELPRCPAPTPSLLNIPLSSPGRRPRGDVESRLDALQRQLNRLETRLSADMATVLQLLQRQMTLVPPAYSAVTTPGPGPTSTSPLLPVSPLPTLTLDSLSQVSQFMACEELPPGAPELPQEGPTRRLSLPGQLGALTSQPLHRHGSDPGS

[13] = molecular target: T1, Histamine H3 receptor; assay: Inverse agonist activity at human histamine H3 receptor assessed as inhibition of R-alpha-methylhistamine induced [35S]GTPgammaS binding; format: functional
[14] = Distribution coefficient log D of the compound at pH 7.4; format: physicochemical; conditions: octanol/water
[15] = Dissociation constant, pKa of the compound; format: physicochemical

T1 sequence (Q9Y5N1 whole entry): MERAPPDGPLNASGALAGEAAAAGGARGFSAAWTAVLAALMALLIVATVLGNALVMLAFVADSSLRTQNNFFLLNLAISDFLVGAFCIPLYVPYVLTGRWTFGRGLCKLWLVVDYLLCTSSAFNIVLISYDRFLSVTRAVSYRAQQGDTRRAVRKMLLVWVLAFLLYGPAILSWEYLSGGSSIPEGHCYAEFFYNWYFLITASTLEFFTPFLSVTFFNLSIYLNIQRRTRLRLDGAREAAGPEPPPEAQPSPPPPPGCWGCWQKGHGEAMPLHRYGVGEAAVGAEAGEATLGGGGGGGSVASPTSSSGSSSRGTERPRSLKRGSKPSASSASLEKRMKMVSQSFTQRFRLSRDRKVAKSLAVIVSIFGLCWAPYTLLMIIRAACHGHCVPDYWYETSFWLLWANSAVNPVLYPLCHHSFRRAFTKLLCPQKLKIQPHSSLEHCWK

SMILES | Ki [1] | clearance [2] | bioavailability [3] | Ki [4] | Kp [5] | half-life [6] | bioavailability [7] | ED50 [8] | Kb [9] | EC50 [10] | bioavailability [11] | IC50 [12] | EC50 [13] | logD [14] | pKa [15]
C[C@@H]1CCCN1CCCOc1ccc(-c2ccc(=O)n(Cc3ccccc3)n2)cc1 | 6.9 nM | 46 mL/min/kg | < 1% | 12 nM | 3.8 | 42 min | – | – | – | – | – | – | – | – | –
C[C@@H]1CCCN1CCc1cc2cc(-c3ccc(C#N)cc3)ccc2o1 | – | 39 mL/min/kg | – | – | 32 | 90 min | > 18% | – | – | – | – | – | – | – | –
CCn1nc(-c2ccc(OCCCN3CCC[C@H]3C)cc2)ccc1=O | 3.9 nM | 238 mL/min/kg | 18% | 11 nM | 1.5 | 24 min | – | – | – | – | – | – | – | – | –
O=c1ccc(-c2ccc(OCCCN3CCCC3)cc2)n[nH]1 | 16 nM | – | – | 45 nM | – | – | – | – | – | – | – | – | – | – | –
O=c1ccc(-c2ccc(OCCCN3CCCCC3)cc2)n[nH]1 | 8.7 nM | 4.9 mL/min/kg | 11% | 37 nM | 1.9 | 54 min | – | – | – | – | – | – | – | – | –
Cn1nc(-c2ccc(OCCCN3CCC[C@H]3CO)cc2)ccc1=O | – | 90 mL/min/kg | 43% | 48 nM | 1.4 | 60 min | – | – | – | – | – | – | – | – | –
C[C@@H]1CCCN1CCCOc1ccc(-c2ccc(=O)n(C)n2)cc1 | 1.4 nM | 45 mL/min/kg | – | 6.3 nM | 3.5 | 96 min | – | 0.14 mg/kg | 0.5 nM | 2.2 nM | 39% | 13000 nM | 1 nM | 0.8 | –
O=c1ccc(-c2ccc(OCCCN3CCOCC3)cc2)n[nH]1 | 767 nM | – | – | 822 nM | – | – | – | – | – | – | – | – | – | – | 7.1
